In patent US9534059B2, “TIKI inhibitors” (Children's Medical Center Corporation, priority 2012, dated 2017):

Experiments:
Assay type in all cases: in vivo
Tiki1 [1] = biological target: T1, Tiki1 (Xenopus tropicalis, UniProt F6PTN1); experiment: Tiki1MO loss-of-function phenotype scoring in embryos; conditions: 20 ng into two dorsal blastomeres of 8-cell stage embryos
T1 construct: Thus the endogenous Tiki1 in the Organizer acts in both Wnt-producing and Wnt-responding cells; endogenous in cells; host or cells: Xenopus embryos (dorsal blastomeres / organizer)
T1 sequence (F6PTN1 24-480): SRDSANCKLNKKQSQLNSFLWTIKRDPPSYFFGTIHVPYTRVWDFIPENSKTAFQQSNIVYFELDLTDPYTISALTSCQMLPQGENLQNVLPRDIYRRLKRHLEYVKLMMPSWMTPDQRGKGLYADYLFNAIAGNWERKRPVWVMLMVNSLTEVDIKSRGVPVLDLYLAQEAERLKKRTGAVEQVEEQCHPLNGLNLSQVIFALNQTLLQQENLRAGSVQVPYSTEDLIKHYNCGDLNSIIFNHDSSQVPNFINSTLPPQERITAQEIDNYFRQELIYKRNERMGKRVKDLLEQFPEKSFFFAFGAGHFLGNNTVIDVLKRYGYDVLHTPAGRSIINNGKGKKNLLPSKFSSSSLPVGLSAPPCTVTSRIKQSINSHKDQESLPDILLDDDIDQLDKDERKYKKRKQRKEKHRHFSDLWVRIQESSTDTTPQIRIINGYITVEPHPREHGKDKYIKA
Procedure: 20 ng of control MO, Tiki1MO or Tiki1MO together with 50 pg of HA-Tiki1 mRNA was injected into two dorsal blastomeres at the 8-cell stage and the phenotype was scored at stage 42. Lateral view (left) and dorso-anterior view (right) are shown. Con, control.
(C) Statistical data of the Tiki1MO phenotype.
(§1) 20 ng of Tiki1MO were injected into two dorsal blastomeres of 8-cell stage embryos. […] Co-injection of HA*Tiki1 mRNA rescued Tiki1MO phenotypes (FIGS. 3B and 3C). Supporting a role of Tiki1 in Wnt inhibition during head formation, Dkk1 mRNA injection also rescued Tiki1MO anterior deficiency phenotypes (FIG. 3E).

Tiki1 [2] = biological target: T1, Tiki1; experiment: Anterior neural marker expression at stage 16 in MO-injected embryos, whole mount in situ hybridization (FIG. 3I)
Procedure: (I) Tiki1 is required for anterior neural patterning. 20 ng of control MO or Tiki1MO plus fluorescein dextran (FLD, as a lineage tracer) were injected into one dorsal blastomere at the 8-cell stage. 50 pg of HA*Tiki1 mRNA were injected into the dorsal-animal blastomeres at the 4-cell stage in rescue experiments. Injected embryos were collected at stage 16 and subjected for whole mount in situ hybridization. Expression of forebrain markers BF1 and Otx2 (not shown) and the midbrain marker Ent was reduced in the Tiki1MO-injected half and was rescued by HA*Tiki1.
Procedures for embryo manipulation, reverse transcription PCR and in situ hybridization were performed as previously described (Tamai et al., 2000). The arrayed Xenopus tropicalis full length cDNAs (Voigt et al., 2005) were used for the screening as performed previously (Kato et al., 2002). cDNA pools (in the CS107 vector) that contain 96 independent clones were transcribed in vitro using SP6 polymerase, and the resulting mRNA pools were injected into the dorsal side of the embryo at 4-cell stage at the dose of 10 ng RNA/embryo. Injected embryos were scored at stage 30-31 for enlarged or diminished anterior development. The positive pools were divided into smaller pools and the same process was repeated till a single cDNA was identified.
The following morpholino oligonucleotides were used: Tiki1 MO: 5′-[…]-3′ (SEQ ID NO:33); standard control MO: 5′-[…]-3′ (SEQ ID NO:34) (Gene Tools, LLC). RT-PCR primers for XTiki1: Forward, 5′-[…]-3′(SEQ ID NO:35), Reverse, 5′-[…]-3′(SEQ ID NO:36); human TIKI1: Forward, 5′-[…]-3′(SEQ ID NO:37), Reverse, 5′-[…]-3′(SEQ ID NO:38); human TIKI2: Forward, 5′-[…]-3′(SEQ ID NO:39), Reverse, 5′-[…]-3′(SEQ ID NO:40).
The fact that Tiki1 is specifically expressed in, and is required for function of, the head organizer implies that Tiki1 has a role in anterior neural patterning. Tiki1MO were injected with fluorescein dextran (FLD, as a lineage tracer) into one dorsal-animal blastomere at the 8-cell stage and analyzed expression of anterior neural markers at stage 16. Tiki1MO suppressed, in the injected half of the embryo, the expression of forebrain marker BF1 and Otx2 (FIG. 3I and Table 3). […] HA*Tiki1 mRNA injection rescued the expression of BF1, Otx2, and Ent in Tiki1MO-injected embryos (FIG. 3I and Table 3).

Tiki1 [3] = biological target: T1, Tiki1; experiment: MO block of Tiki1 protein synthesis in animal caps, Western blotting; conditions: animal caps stage 10
Procedure: (A) 500 pg mRNA for Tiki1-FLAG (targeted by MO) or HA*Tiki1 (resistant to MO) were injected with or without the Tiki1MO (5, 10, 20, 40 ng) into the animal pole at the 2-cell stage, and animal caps were dissected at stage 10 for Western blotting. MO, morpholino antisense oligonucleotide.
as §1

Substance: Tiki1 MO: morpholino antisense oligonucleotide against Tiki1, 5′-CCAAATGATTACCATCATAGCTCAG-3′ (SEQ ID NO:33) (all phosphorodiamidate morpholino (PMO))
- Injected embryos that developed anterior defects (Tiki1 [1]): roughly 50%
- Whole embryos displaying change in gene expression: BF1 Absent, Percentage (%) (Tiki1 [2]; gene BF1, stage 16): 63%
- Whole embryos displaying change in gene expression: BF1 NC (No Change), Percentage (%) (Tiki1 [2]; gene BF1, stage 16): 14%
- Whole embryos displaying change in gene expression: BF1 Reduced, Percentage (%) (Tiki1 [2]; gene BF1, stage 16): 23%
- Whole embryos displaying change in gene expression: BF1 increased, Percentage (%) (Tiki1 [2]; gene BF1, stage 16): 0%
- Whole embryos displaying change in gene expression: En-2 Absent, Percentage (%) (Tiki1 [2]; gene En-2, stage 16): 40%
- Whole embryos displaying change in gene expression: En-2 NC (No Change), Percentage (%) (Tiki1 [2]; gene En-2, stage 16): 35%
- Whole embryos displaying change in gene expression: En-2 Reduced, Percentage (%) (Tiki1 [2]; gene En-2, stage 16): 25%
- Whole embryos displaying change in gene expression: En-2 increased, Percentage (%) (Tiki1 [2]; gene En-2, stage 16): 0%
- Whole embryos displaying change in gene expression: HoxB9 Absent, Percentage (%) (Tiki1 [2]; gene HoxB9, stage 16): 0%
- Whole embryos displaying change in gene expression: HoxB9 NC (No Change), Percentage (%) (Tiki1 [2]; gene HoxB9, stage 16): 100%
- Whole embryos displaying change in gene expression: HoxB9 Reduced, Percentage (%) (Tiki1 [2]; gene HoxB9, stage 16): 0%
- Whole embryos displaying change in gene expression: HoxB9 increased, Percentage (%) (Tiki1 [2]; gene HoxB9, stage 16): 0%
- Whole embryos displaying change in gene expression: Otx2 Absent, Percentage (%) (Tiki1 [2]; gene Otx2, stage 16): 35%
- Whole embryos displaying change in gene expression: Otx2 NC (No Change), Percentage (%) (Tiki1 [2]; gene Otx2, stage 16): 35%
- Whole embryos displaying change in gene expression: Otx2 Reduced, Percentage (%) (Tiki1 [2]; gene Otx2, stage 16): 30%
- Whole embryos displaying change in gene expression: Otx2 increased, Percentage (%) (Tiki1 [2]; gene Otx2, stage 16): 0%
- Synthesis of exogenously expressed Tiki1-FLAG (Tiki1 [3]; 5, 10, 20, 40 ng MO): specifically blocked the synthesis
- Synthesis of HA*Tiki1 (mRNA lacking the MO complementary sequence) (Tiki1 [3]): unable to block the synthesis
